Laboratory results published in paper PMC7080406 (eLife, 2020).
“Also recorded” adds a separate entry of the source. Like-named read-outs stand apart in the source and are kept apart here.

What was measured:
MT1 = target: T1, MT1 (Homo sapiens, UniProt P48039); test: GloSensor Gi/o-mediated cAMP production inhibition assay, MT1; format: cell-based; conditions: for EC50: Gi/o mediated
T1 construct: expressed in transfected cells; host or cells: HEK293T (ATCC CRL-11268), transient transfection
Protocol: Briefly, HEK293 T cells (as above) were transiently co-transfected with receptor (MT1 or MT2) and GloSensor cAMP (Promega) plasmids overnight, plated in Poly-L-Lysine coated 384-well white clear bottom plates in DMEM + 1% dialyzed FBS. Cells were used for assays at a minimum of 6 hr after plating. Culture medium was first removed and cells were stimulated with drugs in assay buffer (1x HBSS, 20 mM HEPES, 1 mg/ml BSA, 0.1 mg/ml ascorbic acid, pH 7.4) for 15 min at room temperature (this and all the following steps), followed by addition of a mixture of isoproterenol (final of 100 nM) and luciferin (final of 1 mM) for Gi/o-cAMP production inhibition assays and luciferin (final of 1 mM) for Gs-cAMP production assays. The plates were counted for luminescence after 25 min in a luminescence plate reader. Results were analyzed using GraphPad Prism 7.0.

MT1 wildtype (WT) = target: T2, MT1 wildtype (WT) (Homo sapiens, UniProt P48039); test: Tango β-arrestin recruitment assay, MT1 wildtype; format: cell-based; conditions: normalized individually (basal 0%, maximum 100%); mean ± SEM, minimum of 3 assays; read-out: pEC50, Tango, MT1 WT (converted)
T2 construct: host or cells: HTLA cells (HEKT based)
T2 sequence (P48039 whole entry): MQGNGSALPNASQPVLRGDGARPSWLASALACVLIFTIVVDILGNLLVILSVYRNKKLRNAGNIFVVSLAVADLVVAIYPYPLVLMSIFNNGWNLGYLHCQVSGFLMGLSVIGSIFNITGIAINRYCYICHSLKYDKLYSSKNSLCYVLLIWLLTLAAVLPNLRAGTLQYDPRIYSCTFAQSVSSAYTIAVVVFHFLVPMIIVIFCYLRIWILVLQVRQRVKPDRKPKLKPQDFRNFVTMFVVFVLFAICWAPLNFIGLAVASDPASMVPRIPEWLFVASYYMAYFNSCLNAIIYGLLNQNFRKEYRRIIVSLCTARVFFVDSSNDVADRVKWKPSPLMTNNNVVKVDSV
Protocol: (§1) In brief, HTLA cells were transiently transfected with receptor TANGO DNA constructs overnight in DMEM with 10% FBS. Transfected cells were then plated into poly-L-Lys coated 384-well plates using DMEM supplemented with 1% dialyzed FBS. After 6 hr incubation, drug dilutions, prepared in DMEM with 1% dFBS, were added for incubation overnight (16–20 hr). Medium and drug solutions were removed, Bright-Glo reagent (20 uL/well) was added for luminescence counting 20 min later. Results were analyzed in GraphPad Prism 7.0.

[1] = target: T3, MT1 Y281F mutant receptor (Homo sapiens, UniProt P48039, Y281F); test: Tango β-arrestin recruitment assay, MT1 Y281F mutant; format: cell-based
T3 construct: expressed in transfected cells; host or cells: HTLA cells (HEKT based)
T3 sequence (P48039 whole entry Y281F): as the sequence (P48039 whole entry) above, with Y281F counted along it
Protocol: as §1

5-HT1D = target: T4, 5-HT1D (Homo sapiens, UniProt P28221); test: Off-target radioligand binding, 5-HT1D
T4 construct: expressed in transfected cells; host or cells: HEK293T, transient transfection (NIMH PDSP)
T4 sequence (P28221 whole entry, species assumed): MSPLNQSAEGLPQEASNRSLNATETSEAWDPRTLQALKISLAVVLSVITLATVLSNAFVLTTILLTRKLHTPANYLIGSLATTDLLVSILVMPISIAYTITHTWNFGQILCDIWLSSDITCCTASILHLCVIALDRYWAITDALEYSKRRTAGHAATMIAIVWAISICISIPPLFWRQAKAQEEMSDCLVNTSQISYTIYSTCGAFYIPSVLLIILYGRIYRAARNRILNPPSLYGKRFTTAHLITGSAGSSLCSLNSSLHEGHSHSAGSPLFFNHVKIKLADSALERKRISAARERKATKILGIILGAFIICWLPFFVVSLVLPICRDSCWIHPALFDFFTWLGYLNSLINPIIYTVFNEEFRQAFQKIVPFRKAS
Protocol: (§2) The Radioligand binding assays were conducted by the NIMH Psychoactive Drug Screening Program (PDSP). The NIMH PDSP is directed by Bryan L. Roth, MD, PhD, at the University of North Carolina at Chapel Hill, North Carolina, and Program Officer Jamie Driscoll at NIMH, Bethesda, MD. Binding assay procedures and protocols are also available online at http://pdspdb.unc.edu/pdspWeb/?site=assays. […] Assay plates were sealed and incubated for 4 hr at 37°C in a humidified incubator until harvesting. Plates were harvested using vacuum filtration onto 0.3% polyethyleneimine pre-soaked 96-well Filtermat A (PerkinElmer) and washed three times with cold wash buffer (50 mM Tris, pH 7.4). Filters were dried and melted with a scintillation cocktail (Meltilex, PerkinElmer). Radioactivity was counted using a Wallac TriLux Microbeta counter (PerkinElmer). Results were analyzed using GraphPad Prism 7.0.

MT2 [2] = target: T5, MT2 (Homo sapiens, UniProt P49286); test: Tango β-arrestin recruitment assay, MT2; format: cell-based; parameters: expressed in transfected cells; transient transfection; conditions: result in words; compared to G-protein
T5 sequence (P49286 1-362): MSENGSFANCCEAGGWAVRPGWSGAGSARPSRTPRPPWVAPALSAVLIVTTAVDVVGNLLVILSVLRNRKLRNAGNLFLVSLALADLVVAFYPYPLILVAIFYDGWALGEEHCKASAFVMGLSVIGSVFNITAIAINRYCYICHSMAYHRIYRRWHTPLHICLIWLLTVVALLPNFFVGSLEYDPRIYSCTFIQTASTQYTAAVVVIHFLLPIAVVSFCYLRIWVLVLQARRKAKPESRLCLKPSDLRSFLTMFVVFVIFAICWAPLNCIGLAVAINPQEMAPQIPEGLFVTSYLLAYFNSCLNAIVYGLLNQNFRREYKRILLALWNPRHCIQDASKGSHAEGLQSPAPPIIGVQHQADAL
Protocol: as §1, with “Tango arrestin recruitment assays were carried out according to the previously published procedure [Kroeze et al. (2015)]. In” for “In”

MT2 [3] = target: T5, MT2; test: [3H]melatonin competition radioligand binding, MT2 membranes; parameters: expressed in transfected cells; host or cells: HEK293T (ATCC CRL-11268), transient transfection; conditions: read-out: MT2 pKi ± SEM (converted)
Protocol: as §2

MT2 [4] = target: T5, MT2; test: Bias factor, Gi-cAMP versus Tango (Black and Leff operational model), MT2; format: cell-based; parameters: expressed in transfected cells; host or cells: HEK293T (ATCC CRL-11268), transient transfection; conditions: G-protein over β-arrestin at MT2; reference melatonin; 10^ΔΔLog(τ/KA)
Protocol: Bias factors were estimated according to the published procedure [Kenakin et al. (2012)] with modifications. Briefly, normalized and pooled results were analyzed by fitting the Black and Leff operational model in Prism 7.0 to obtain Log(τ/KA) values for each pathway (Tango and Gi-cAMP). Within each signaling pathway, a difference of Log(τ/KA), ΔLog(τ/KA), between a test compound and selected reference (melatonin in this case) was calculated. For a testing compound, the difference of ΔLog(τ/KA), ΔΔLog(τ/KA), was then obtained between two pathways. The bias factor is 10^ΔΔLog(τ/KA).

T1 sequence (P48039 whole entry): as the sequence (P48039 whole entry) above

COc1ccc2[nH]cc(CCNC(N)=O)c2c1 [Compound 28, [2-(5-methoxy-1H-indol-3-yl)ethyl]urea]
EC50 (MT1; SEM, N = 3, read-out: MT1 pEC50 ± SEM (converted)): 0.0407 nM | EC50 (MT1; read-out: MT1 EC50): 0.04 nM | MT1 LE (MT1; ligand efficiency (based on EC50)): 0.86 kcal/mol per non-hydrogen atom | Emax (MT1; read-out: MT1 Emax ± SEM): 95.3 ± 2.6% | EC50 (MT1 wildtype (WT)): 22.9 nM | reduction of potency, MT1 Y281F versus WT ([1]; Tango): > 100 fold | EC50 ([1]; normalized individually (basal 0%, maximum 100%), mean ± SEM, minimum of 3 assays, read-out: pEC50, Tango, MT1 Y281F (converted)): 4680 nM | inhibition at 10 µM (5-HT1D; 10 μM): > 50% | Ki (5-HT1D; read-out: pKi, 5-HT1D (converted)): 1510 nM | β-arrestin signaling / arrestin recruitment at MT2 (MT2 [2]): dramatically reduced arrestin recruitment; also recorded: marked reduction in β-arrestin signaling compared to G-protein | Ki (MT2 [3]): 23.4 nM | bias factor (MT2 [4]): 33.9
